Assay results from patent US20230303599A1, “PRODRUGS OF PHOSPHONAMIDE NUCLEOTIDE ANALOGUES AND THEIR PHARMACEUTICAL USE” (priority 2020, published 2023).
In brackets after ≈: the same amount, converted by molar mass.

What was measured:
[1] = Cytotoxicity assay in MT-4 cells; format: cell-based; settings: human, uninfected MT-4 cells, average of at least two independent experiments, read-out: MT4 CC50
Procedure, shortened: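 Uninfected MT-4 cells were incubated 5 days at 37 °C with 1:3 serially diluted compound in RPMI (10% FBS), with 10 μM puromycin as baseline cytotoxicity. Viability was read by CellTiter-Glo luminescence. Values are concentrations giving 50% luminescence decrease, from sigmoidal dose-response fits.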

HBV = test: Antiviral (HBV) assay in primary human hepatocytes (PHHs); format: cell-based; settings: Hepatitis B virus, Hepatocyte, 120 h; HBV (GTD) infected PHH, 5 days, HBV DNA in supernatant; average of at least two independent experiments
Method: Example 106: Antiviral (HBV) Assay in Primary Human Hepatocytes (PHHs)
Cryopreserved PHH were thawed, recovered by centrifugation at 100 g in cryopreserved hepatocyte recovery medium (Thermo Fisher Scientific; CM7500), and plated on collagen matrix (Life Technologies; Catalog Number: R-011-K) coated T225 flasks (Corning CellBIND, Catalog Number: 3293) at a density of 25E6 live cells in 60 mls media. Cells were plated in William's E medium (Thermo Fisher Scientific; A1217601) supplemented with 3.6% hepatocyte thawing and plating supplement (Thermo Fisher Scientific, A15563), 5% fetal bovine serum (Thermo Fisher Scientific; 16000-036), 1 μM dexamethasone (Thermo Fisher Scientific, A15563), and 0.2% Torpedo antibiotic mix (Bioreclamation; Z990008). The plating medium was removed after 14 hours and the cells were subsequently cultured in maintenance medium: William's E medium supplemented with 4% hepatocyte maintenance supplement (Thermo Fisher Scientific; AI15564), 2% fetal bovine serum, 0.1μ M dexamethasone, 1.5% DMSO (Sigma-Aldrich, St. Louis, MO; D8418), and 0.2% Torpedo antibiotic mix. Approximately 24 hours after plating, PHH were infected with HepAD38-derived GTD virus at 500 viral genome equivalents per cell in PHH maintenance medium supplemented with 4% PEG 8000 (Promega, Madison, WI; V3011). Infections were allowed to proceed for 24 hours before removing the remaining extracellular virions by washing with maintenance medium three times. After allowing viral infection to take place for 3 days, the infected cells were harvested from the flasks by trypsinization (0.25X in PBS without Ca/Mg, 25 minutes) following a 4 minute 0.5X Versene (Life Technologies Catalog Number: 15040-066) treatment and two PBS washes. Trypsinized cells were inactivated in 10% FBS containing maintenance medium, centrifuged 6 minutes at 50 g, resuspended in hepatocyte maintenance medium, filtered through a 40 uM cell strainer, and adjusted to a density of 0.25E6 cells/ml. Infected cells were seeded on 384 well collagen coated plates (Greiner, Austria) at a density of 20,000 cells/well containing serially diluted compounds of the present disclosure or DMSO (0.5%) in a final volume of 80 μl. The assay plates were incubated for a period of 5 days and the antiviral activity of the test compounds were assayed by detecting the presence of HBV DNA in the culture supernatant using the QuantiGene™ 2.0 nucleic acid quantification kit (Affymetrix, Santa Clara, CA).

[2] = Cytotoxicity assay in primary human hepatocytes (PHHs); format: cell-based; settings: HBV-infected primary human hepatocytes, HBV-infected PHH, Cell Titer Glo, average of at least two independent experiments
Method: Example 107: Cytotoxicity Assay in Primary Human Hepatocytes (PHHs)
The HBV-infected primary human hepatocytes are seeded (20K cells/well in 80 uL of Media) in 384well collagen coated plates pre-spotted with compounds. After 5 days, 40 ul of cell supernatant is removed to quantify HBV DNA levels as described in Example 106. Then, 40 ul Cell Titer Glo Reagent (Promega Catalog Number: G7572) is added to the remaining cells and luminescence is measured on the EnVision microplate reader.

[3] = Kinetic solubility analysis; format: physicochemical; settings: 1× PBS, 24.2 °C, aqueous buffer, kinetic from dmso stock; pH 7.4 PBS, 1% DMSO, 24-hour incubation at ambient temperature
Procedure, shortened: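 Compounds from 10 mM DMSO stocks were incubated in 0.1 N HCl or 1× PBS pH 7.4 (1.0% DMSO, 100 μM maximum theoretical) for 24 h at 24.2-27.5 °C, then vacuum filtered. Filtrates were quantified in μM by chemiluminescent nitrogen detection against a calibration curve, corrected for background nitrogen; values for adjacent ring-nitrogen compounds were raised ~25%.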

Row | Compound | CC50 at 5 days [1] [nM] | EC50 (HBV) [nM] | CC50 at 5 days [2] [nM] | solubility kinetic at 24 h [3] [µg/mL]
1 | C[C@H](Cn1cnc2c(N)ncnc21)OCP(=O)(NC(C)(C)C(=O)OCC1CCCCC1)NC(C)(C)C(=O)OCC1CCCCC1 [Example 46, Bis(cyclohexylmethyl) 2,2′-(((((1-(6-amino-9H-purin-9-yl)propan-2-yl)oxy)methyl)phosphoryl)bis(azanediyl))(R)-bis(2-methylpropanoate)] | 4160 | 2.51 | > 100 | < 1
2 | C[C@H](Cn1cnc2c(N)ncnc21)OCP(=O)(NC(C)(C)C(=O)OCC12CCC(CC1)CC2)NC(C)(C)C(=O)OCC12CCC(CC1)CC2 [Example 48, Bis(bicyclo[2.2.2]octan-1-ylmethyl) 2,2′-(((((1-(6-amino-9H-purin-9-yl)propan-2-yl)oxy)methyl)phosphoryl)bis(azanediyl))(R)-bis(2-methylpropanoate)] | 3340 | 4.63 | > 100 | < 1
3 | CCC1(CC)CC(OC(=O)C(C)(C)NP(=O)(CO[C@H](C)Cn2cnc3c(N)ncnc32)NC(C)(C)C(=O)OC2CC(CC)(CC)C2)C1 [Example 49, Bis(3,3-diethylcyclobutyl) 2,2′-(((((1-(6-amino-9H-purin-9-yl)propan-2-yl)oxy)methyl)phosphoryl)bis(azanediyl))(R)-bis(2-methylpropanoate)] | 5220 | 5.45 | > 100 | 4 (≈ 5.9 µM)
4 | C[C@H](Cn1cnc2c(N)ncnc21)OCP(=O)(NC(C)(C)C(=O)OCC1CC2(CCC2)C1)NC(C)(C)C(=O)OCC1CC2(CCC2)C1 (stereo partly drawn) [Example 50, Bis(spiro[3.3]heptan-2-ylmethyl) 2,2′-(((((1-(6-amino-9H-purin-9-yl)propan-2-yl)oxy)methyl)phosphoryl)bis(azanediyl))(R)-bis(2-methylpropanoate)] | 8060 | 3.1 | > 100 | < 1
5 | C[C@H](Cn1cnc2c(N)ncnc21)OCP(=O)(NC(C)(C)C(=O)O[C@H]1C[C@@H](C(C)(C)C)C1)NC(C)(C)C(=O)O[C@H]1C[C@@H](C(C)(C)C)C1 [Example 51, Bis((1S,3S)-3-(tert-butyl)cyclobutyl) 2,2′-((((((R)-1-(6-amino-9H-purin-9-yl)propan-2-yl)oxy)methyl)phosphoryl)bis(azanediyl))bis(2-methylpropanoate)] | 7250 | 6 | > 100 | 6 (≈ 8.85 µM)
6 | C[C@H](Cn1cnc2c(N)ncnc21)OCP(=O)(NC(C)(C)C(=O)O[C@H]1C[C@H](C(C)(C)C)C1)NC(C)(C)C(=O)O[C@H]1C[C@H](C(C)(C)C)C1 [Example 52, Bis((1R,3R)-3-(tert-butyl)cyclobutyl) 2,2′-((((((R)-1-(6-amino-9H-purin-9-yl)propan-2-yl)oxy)methyl)phosphoryl)bis(azanediyl))bis(2-methylpropanoate)] | 7190 | 14.4 | > 100 | < 1
7 | C[C@H](Cn1cnc2c(N)ncnc21)OCP(=O)(NC(C)(C)C(=O)OCC1CCC2(CCC2)CC1)NC(C)(C)C(=O)OCC1CCC2(CCC2)CC1 (stereo partly drawn) [Example 53, Bis(spiro[3.5]nonan-7-ylmethyl) 2,2′-(((((1-(6-amino-9H-purin-9-yl)propan-2-yl)oxy)methyl)phosphoryl)bis(azanediyl))(R)-bis(2-methylpropanoate)] | 7550 | 8.38 | > 100 | < 1
8 | CCC(C)(C)CCOC(=O)C(C)(C)NP(=O)(CO[C@H](C)Cn1cnc2c(N)ncnc21)NC(C)(C)C(=O)OCCC(C)(C)CC [Example 54, Bis(3,3-dimethylpentyl) 2,2′-(((((1-(6-amino-9H-purin-9-yl)propan-2-yl)oxy)methyl)phosphoryl)bis(azanediyl))(R)-bis(2-methylpropanoate)] | 6720 | 4.45 | > 100 | 12 (≈ 18.4 µM)
9 | C[C@H](Cn1cnc2c(N)ncnc21)OCP(=O)(NC(C)(C)C(=O)O[C@H](C)C1CCCCC1)NC(C)(C)C(=O)O[C@H](C)C1CCCCC1 [Example 55, Bis((R)-1-cyclohexylethyl) 2,2′-((((((R)-1-(6-amino-9H-purin-9-yl)propan-2-yl)oxy)methyl)phosphoryl)bis(azanediyl))bis(2-methylpropanoate)] | 9420 | 6.26 | > 100 | < 1
10 | C[C@H](Cn1cnc2c(N)ncnc21)OCP(=O)(NC(C)(C)C(=O)O[C@@H](C)C1CCCCC1)NC(C)(C)C(=O)O[C@@H](C)C1CCCCC1 [Example 56, Bis((S)-1-cyclohexylethyl) 2,2′-((((((R)-1-(6-amino-9H-purin-9-yl)propan-2-yl)oxy)methyl)phosphoryl)bis(azanediyl))bis(2-methylpropanoate)] | 9650 | 3.99 | > 100 | 5 (≈ 7.38 µM)
11 | C[C@H](Cn1cnc2c(N)ncnc21)OCP(=O)(NC(C)(C)C(=O)OCC1CC2(C1)CC1(CCC1)C2)NC(C)(C)C(=O)OCC1CC2(C1)CC1(CCC1)C2 [Example 57, Bis(dispiro[3.1.3^6.1^4]decan-2-ylmethyl) 2,2′-(((((1-(6-amino-9H-purin-9-yl)propan-2-yl)oxy)methyl)phosphoryl)bis(azanediyl))(R)-bis(2-methylpropanoate)] | 6620 | 4.71 | > 100 | < 1
12 | C[C@H](Cn1cnc2c(N)ncnc21)OCP(=O)(NC(C)(C)C(=O)OCC1CC2(C1)CC(F)(F)C2)NC(C)(C)C(=O)OCC1CC2(C1)CC(F)(F)C2 [Example 58, Bis((6,6-difluorospiro[3.3]heptan-2-yl)methyl) 2,2′-(((((1-(6-amino-9H-purin-9-yl)propan-2-yl)oxy)methyl)phosphoryl)bis(azanediyl))(R)-bis(2-methylpropanoate)] | 3680 | 1.26 | > 100 | 51 (≈ 68.4 µM)
13 | C[C@H](Cn1cnc2c(N)ncnc21)OCP(=O)(NC(C)(C)C(=O)OCC12CC3CC(CC(C3)C1)C2)NC(C)(C)C(=O)OCC12CC3CC(CC(C3)C1)C2 [Example 59, Bis(((1S,3S)-adamantan-1-yl)methyl) 2,2′-((((((R)-1-(6-amino-9H-purin-9-yl)propan-2-yl)oxy)methyl)phosphoryl)bis(azanediyl))bis(2-methylpropanoate)] | 6960 | 6.53 | > 100 | < 1
14 | C[C@H](Cn1cnc2c(N)ncnc21)OCP(=O)(NC(C)(C)C(=O)O[C@@H]1C[C@@H]2C[C@@H]2C1)NC(C)(C)C(=O)O[C@@H]1C[C@@H]2C[C@@H]2C1 [Example 60, Di((1R,3R,5S)-bicyclo[3.1.0]hexan-3-yl) 2,2′-((((((R)-1-(6-amino-9H-purin-9-yl)propan-2-yl)oxy)methyl)phosphoryl)bis(azanediyl))bis(2-methylpropanoate)] | 3310 | 1.44 | > 100 | 76 (≈ 123 µM)
